Our source for the half-life and EC50 values is patent US20240199676A1, “ANTIVIRAL COMPOUNDS AND METHODS OF MAKING AND USING THE SAME” (Gilead Sciences, Inc., priority 2022, published 2024).

The nature of data set [1]: GI S9 stability (Ex. Z), dog intestinal S9. Particulars: pooled intestinal S9 fractions; dog intestinal S9, 1.0 mg/mL protein, 2 μM substrate, pH 7.4; read-out: GIS9 DOG T½ (per Ex. Z). The class given is in vitro ADME. Here is the method: (§1) Example Z: GI S9 stability data:
(§2) Stock solutions of test compounds in dimethyl sulfoxide (DMSO) having a final concentration of 10 mM were prepared and used in all experiments. Sekisui XenoTech (Kansas City, KS) provided pooled intestinal S9 fractions. All other chemicals were purchased from Sigma-Aldrich (St. Louis, MO) or VWR (West Chester, PA). Internal Standard/Quench (IS/Q) used to stop reactions was 100 nM labetalol in (by volume) methanol (10%) and acetonitrile (90%).
(§3) Stability in Intestinal S9 Fractions: Duplicate aliquots of test compound or positive control substrate were added to S9 stock diluted with phosphate buffered saline (137 mM NaCl, 2.7 mM KCl, 10 mM phosphate buffer), pH 7.4, to obtain a protein concentration of 1.0 mg/mL. The metabolic reactions were initiated by the addition of the substrates to the S9 reaction mixture to a final concentration of 2 μM. At 0, 10, 20, 30, 60 and 120 min, 25 μL aliquots of the reaction mixture were transferred to plates containing 225 μl of IS/Q solution. After quenching, the plates were centrifuged at 3000×g for 30 minutes. 150 μL aliquots of each supernatant were dried down then reconstituted with 300 μL water. Aliquots (10 μL) of the prepared samples were analyzed on a Thermo Q-Exactive mass spectrometer as described below.
(§4) Liquid Chromatography—Mass Spectrometry: Quantification of test compounds and control substrate was performed by analyte/internal standard peak area ratio (PAR) values measured on a Thermo Q-Exactive mass spectrometer coupled to a Dionex UltiMate 3000 HPLC with a Leap Technologies HTC PAL autosampler. The column used for analysis was a Waters Acquity BEH C18 (1.7 μm particle size, 2.1×50 mm). Mobile phase A consisted of 0.1% (v/v) formic acid in water. Mobile phase B consisted of 0.1% (v/v) formic acid in acetonitrile. Elution of analytes was achieved by a series of linear gradients varying the proportions of A and B. The mass spectrometer was calibrated on a weekly basis and mass tolerance of 5 ppm was used.
(§5) Metabolic stabilities in S9 fractions were determined by measuring the rates of disappearance of test compound and positive control substrate.
(§6) Data (% of substrate remaining) were plotted on a semi-log scale and fitted using an exponential decline model:
(§7) Where Ct—% of substrate remaining at time=t; C0—% of substrate remaining at time=0; t—time; T½—half-life The Half-life (T½) is determined by the following equation: […]
(§8) Assuming a first-order reaction, the slope (k) is extrapolated from the aforementioned plotted data.

Data set [2] is described as follows: GI S9 stability (Ex. Z), cyno intestinal S9. The class given is in vitro ADME. Particulars: cynomolgus monkey, pooled intestinal S9 fractions; cyno intestinal S9, 1.0 mg/mL protein, 2 μM substrate, pH 7.4; read-out: GIS9 Cyno T½ (per Ex. Z). As for the experimental part: as §1, §2, §3, §4, §5, §6, §7, §8
Data set [3] concerns Respiratory syncytial virus recombinant with luciferase (RSV-Luc5) in NHBE cells. In words: NHBE RSV-Luc5 384-well Assay (EC50 RSVFLUC NHBE-384, Ex. U). In kind it is cell-based. Particulars: human respiratory syncytial virus, 72 h, read-out: EC50 RSV FLUC NHBE 384 (per Ex. U). The source says:
Example U. NHBE RSV-Luc5 384-well Assay (EC50 RSVFLUC NHBE-384)
Normal Human Bronchial Epithelial (NHBE) cells were purchased from Lonza (Walkersville, MD Cat #CC2540) and maintained in BEGM Bronchial Epithelial Cell Growth Medium BulletKit (Lonza CC-3170).
Cells were thawed, expanded, and were used for experiments at passage 2. Respiratory syncytial virus recombinant with luciferase (RSV-Luc5) (≥1×10^7 Infectious Units/ml (IU/ml) determined by TCID50) was purchased from Microbiologics (Saint Cloud, MN). Viral replication was determined in NHBE cells in the following manner.
Compounds are prepared in 100% DMSO in 384-well polypropylene plates (Greiner, Monroe, NC, Cat #784201) with 8 compounds per plate in grouped replicates of 4 at 10 serially diluted concentrations (1:3). The serially diluted compounds were transferred to low dead volume Echo plates (Labcyte, Sunnyvale, CA, Cat #LP-0200).
The test compounds were spotted to 384-well assay plates (Greiner, Monroe, NC, Cat#781091) at 200 nL per well. NHBE cells were harvested and suspended in BEGM Bronchial Epithelial Cell Growth Medium BulletKit and seeded to the pre-spotted assay plates at 5,000 cells per well in 30 μL. RSV-Luc5 virus was diluted in BEGM Bronchial Epithelial Cell Growth Medium BulletKit at 500,000 Infectious Units (IU) per mL and 10 μL per well was added to the assay plates containing cells and compounds, for an MOI of 1. The assay plates were incubated for 3 days at 37° C. and 5% CO2. At the end of incubation, One-Glo reagent (Promega, Madison, WI, Cat #E6120) was prepared. The assay plates and One-Glo reagent were equilibrated to room temperature for at least 15 minutes. 40 μL per well of One-Glo reagent was added and the plates were incubated at room temperature for 15 minutes before reading the luminescence signal on an EnVision multimode plate reader (Perkin Elmer, Waltham, MA). Remdesivir was used as positive control and DMSO was used as negative control. Values were normalized to the positive and negative controls (as 0% and 100% replication, respectively) and data was fitted using non-linear regression analysis by Gilead's dose response tool. The EC50 value for each compound was defined as the concentration reducing the viral replication by 50%.

What is called EC50 is the concentration giving half of the maximal effect.

Each structure is given as a SMILES string.

Regarding `CC(C)(C)CC(=O)OC[C@@]1(C#N)O[C@@H](c2ccc3c(N)ncnn23)[C@H](O)[C@@H]1O` [Compound 13, ((2R,3S,4R,5S)-5-(4-aminopyrrolo[2,1-f][1,2,4]triazin-7-yl)-2-cyano-3,4-dihydroxytetrahydrofuran-2-yl)methyl 3,3-dimethylbutanoate], the half-life at 2 μM in data set [1] amounted to 12.6 h; in data set [2], 6.8 h. For the same molecule, the EC50 in data set [3] turned out to be 10.9 µM.

For the molecule `Cc1ccc(C(=O)OC[C@@]2(C#N)O[C@@H](c3ccc4c(N)ncnn34)[C@H](O)[C@@H]2O)cc1` [Compound 14, ((2R,3S,4R,5S)-5-(4-aminopyrrolo[2,1-f][1,2,4]triazin-7-yl)-2-cyano-3,4-dihydroxytetrahydrofuran-2-yl)methyl 4-methylbenzoate], the half-life at 2 μM in data set [1] turned out to be 7.1 h; in data set [2], 0.367 h. For the same molecule, the EC50 in data set [3] was found to be 8.82 µM.

With `CC1(C(=O)OC[C@@]2(C#N)O[C@@H](c3ccc4c(N)ncnn34)[C@H](O)[C@@H]2O)CC1` [Compound 15, ((2R,3S,4R,5S)-5-(4-aminopyrrolo[2,1-f][1,2,4]triazin-7-yl)-2-cyano-3,4-dihydroxytetrahydrofuran-2-yl)methyl 1-methylcyclopropane-1-carboxylate], the results for the half-life at 2 μM in data set [1] and in data set [2] were 13.2 h and 2.05 h, respectively. In data set [3], the EC50 is 8.8 µM.

For the molecule `N#C[C@]1(COC(=O)CC2CCC2)O[C@@H](c2ccc3c(N)ncnn23)[C@H](O)[C@@H]1O` [Compound 16, ((2R,3S,4R,5S)-5-(4-aminopyrrolo[2,1-f][1,2,4]triazin-7-yl)-2-cyano-3,4-dihydroxytetrahydrofuran-2-yl)methyl 2-cyclobutylacetate], the half-life at 2 μM in data set [1] worked out at 1.48 h; in data set [2] it was 0.05 h. The EC50 in data set [3] is 9.53 µM.

For the molecule `N#C[C@]1(COC(=O)C2CCCC2)O[C@@H](c2ccc3c(N)ncnn23)[C@H](O)[C@@H]1O` [Compound 18, ((2R,3S,4R,5S)-5-(4-aminopyrrolo[2,1-f][1,2,4]triazin-7-yl)-2-cyano-3,4-dihydroxytetrahydrofuran-2-yl)methyl cyclopentanecarboxylate], the half-life at 2 μM in data set [1] was 0.433 h; in data set [2], 0.05 h. For the same molecule, the EC50 in data set [3] amounted to 8.99 µM.
